59 sequences from the supplement of paper PMC11208160 can be followed below.
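Note: IS621 recombinase and bridge RNA in Escherichia coli cells.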

A short description of the data set: recombinant barcode read abundance after kanamycin selection (control-corrected) (log10(CPM+1)); higher = more efficient recombination; sequences stand for … in AGTGCAGAGAAAATCGGCCAGTTTTCTCTGCCTGCAGTCCGCATGCCGT…AGATTTATGCAGCGGACTGCCTTTCTCCCAAAGTGATAAACCGGACAGTATCATGGACCGGTTTTCCCGGTAATCCGTATTTGCAAGGTTGGTTTCACT; site = the 11-nt target. In short, it runs like this:
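Recombination efficiency was calculated from barcode counts at recombinant junctions, normalized to counts per million, averaged and corrected by the control. Each value is given as log10(CPM+1). The constructs were Gibson-cloned oligos (promoter, target, barcode, J23119-driven first 104 bridge RNA bases) in a vector with the remaining 73 bp and a T7-inducible recombinase, co-electroporated into E. coli with a donor plasmid and plated in duplicate on chloramphenicol/ampicillin LB agar (control) or chloramphenicol/ampicillin/kanamycin with 0.1 mM IPTG.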
On to “GCTTCACCTTGGGTTCTAACCTGTTGCCT (site GCTTCACCTAG)”, for which the “recombinant barcode read abundance (log10)” value stood at 0.853.

On to “GCTTCACCTTGGGTTCTAACCTGTTGCCT (site GCTTTACCTAA)”, for which the “recombinant barcode read abundance (log10)” value is 0.103.

For the sequence “GCTTGGACTTGGGTTCTAACCTGTTGCAT (site GCTTGGACTAT)”, the “recombinant barcode read abundance (log10)” value worked out at 1.29.

On to “GCTTGGACTTGGGTTCTAACCTGTTGCAT (site GTTTGGACTCT)”, for which the “recombinant barcode read abundance (log10)” value came to 0.0332.

Turning to “GCTTTACCTTGGGTTCTAACCTGTTGCTT (site GCTTCACCTAG)”, the “recombinant barcode read abundance (log10)” value is 0.132.

With “GCTTTACCTTGGGTTCTAACCTGTTGCTT (site GCTTTACCTAA)”, the “recombinant barcode read abundance (log10)” value was 0.368.

With “GCTTTGACTTGGGTTCTAACCTGTTGCCT (site GCTTGGACTAG)”, the “recombinant barcode read abundance (log10)” value worked out at 0.0213.

For the sequence “GCTTTGACTTGGGTTCTAACCTGTTGCCT (site GCTTTGACTAG)”, the “recombinant barcode read abundance (log10)” value came out at 0.788.

As for “GGAAAGACTTGGGTTCTAACCTGTTGCAC (site GGAAAGACTGT)”, the “recombinant barcode read abundance (log10)” value was 2.02.

Regarding “GGAAAGACTTGGGTTCTAACCTGTTGCAC (site TACCGCCCTAC)”, the “recombinant barcode read abundance (log10)” value was found to be 0.128.

In the case of “GGAACCTCTTGGGTTCTAACCTGTTGCTT (site GGAACCTCTAA)”, the “recombinant barcode read abundance (log10)” value was 0.697.

As for “GGAACCTCTTGGGTTCTAACCTGTTGCTT (site GGAACGTCTAA)”, the “recombinant barcode read abundance (log10)” value turned out to be 0.0112.

As for “GGAAGACCTTGGGTTCTAACCTGTTGCTA (site GGAAGACCTTA)”, the “recombinant barcode read abundance (log10)” value was 0.956.

Consider “GGAAGACCTTGGGTTCTAACCTGTTGCTA (site GGAGGACCTAA)”, for which the “recombinant barcode read abundance (log10)” value was found to be 0.246.

In the case of “GGAATCCCTTGGGTTCTAACCTGTTGCCT (site GGAATACCTAG)”, the “recombinant barcode read abundance (log10)” value was determined as 0.0974.

“GGAATCCCTTGGGTTCTAACCTGTTGCCT (site GGAATCCCTAG)”: the “recombinant barcode read abundance (log10)” value was found to be 1.64.

For the sequence “GGAATCCCTTGGGTTCTAACCTGTTGCCT (site GGAATGCCTAG)”, the “recombinant barcode read abundance (log10)” value was 0.463.

In the case of “GGAATCCCTTGGGTTCTAACCTGTTGCCT (site GGAATTCCTAG)”, the “recombinant barcode read abundance (log10)” value came to 0.0836.

On to “GGACAGTCTTGGGTTCTAACCTGTTGCGT (site CCGGTCCCTCT)”, for which the “recombinant barcode read abundance (log10)” value is 0.485.

Consider “GGACAGTCTTGGGTTCTAACCTGTTGCGT (site GGACAGTCTAC)”, for which the “recombinant barcode read abundance (log10)” value was determined as 2.56.

“GGACCTCCTTGGGTTCTAACCTGTTGCCT (site GGACCTCCTAA)”: the “recombinant barcode read abundance (log10)” value came out at 0.336.

As for “GGACCTCCTTGGGTTCTAACCTGTTGCCT (site GGACCTCCTAC)”, the “recombinant barcode read abundance (log10)” value came out at 0.251.

On to “GGACCTCCTTGGGTTCTAACCTGTTGCCT (site GGACCTCCTAG)”, for which the “recombinant barcode read abundance (log10)” value is 1.32.

On to “GGACCTCCTTGGGTTCTAACCTGTTGCCT (site GGACCTCCTAT)”, for which the “recombinant barcode read abundance (log10)” value is 0.524.

“GGACGACCTTGGGTTCTAACCTGTTGCCT (site GGACGACCTAG)”: the “recombinant barcode read abundance (log10)” value stood at 2.26.

Consider “GGACGACCTTGGGTTCTAACCTGTTGCCT (site GGACGCCCTAG)”, for which the “recombinant barcode read abundance (log10)” value was determined as 0.102.

Regarding “GGACGACCTTGGGTTCTAACCTGTTGCCT (site GGACGGCCTAG)”, the “recombinant barcode read abundance (log10)” value was found to be 0.412.

Take “GGACGACCTTGGGTTCTAACCTGTTGCCT (site GGACGTCCTAG)”: the “recombinant barcode read abundance (log10)” value amounted to 0.163.

For the sequence “GGACGTGCTTGGGTTCTAACCTGTTGCCT (site CTCTCGTCTCC)”, the “recombinant barcode read abundance (log10)” value was determined as 0.0482.

For the sequence “GGACGTGCTTGGGTTCTAACCTGTTGCCT (site GGACGTGCTAG)”, the “recombinant barcode read abundance (log10)” value came out at 1.92.

Take “GGACTAACTTGGGTTCTAACCTGTTGCCT (site AGACTAACTAA)”: the “recombinant barcode read abundance (log10)” value was 0.126.

As to “GGACTAACTTGGGTTCTAACCTGTTGCCT (site GGACTAACTAG)”, the “recombinant barcode read abundance (log10)” value was 1.95.

As for “GGAGAGACTTGGGTTCTAACCTGTTGCAT (site ACGTGTCCTCC)”, the “recombinant barcode read abundance (log10)” value came to 0.149.

In the case of “GGAGAGACTTGGGTTCTAACCTGTTGCAT (site GGAGAGACTAT)”, the “recombinant barcode read abundance (log10)” value was found to be 2.79.

Turning to “GGAGATTCTTGGGTTCTAACCTGTTGCCT (site GGAGATTCTAG)”, the “recombinant barcode read abundance (log10)” value is 2.22.

As to “GGAGATTCTTGGGTTCTAACCTGTTGCCT (site GGAGTTGCTAG)”, the “recombinant barcode read abundance (log10)” value came out at 0.0142.

Turning to “GGAGCTCCTTGGGTTCTAACCTGTTGCCA (site CGAGCTCCTGG)”, the “recombinant barcode read abundance (log10)” value was determined as 0.082.

Regarding “GGAGCTCCTTGGGTTCTAACCTGTTGCCA (site GGAGCTCCTTG)”, the “recombinant barcode read abundance (log10)” value stood at 0.371.

Regarding “GGAGGGACTTGGGTTCTAACCTGTTGCGT (site GGAGGGACTAC)”, the “recombinant barcode read abundance (log10)” value stood at 2.97.

For the sequence “GGAGGGACTTGGGTTCTAACCTGTTGCGT (site GGTCGGACTAC)”, the “recombinant barcode read abundance (log10)” value amounted to 0.0283.

Turning to “GGAGTCACTTGGGTTCTAACCTGTTGCGG (site GGAGTCACTCC)”, the “recombinant barcode read abundance (log10)” value is 2.69.

As to “GGAGTCACTTGGGTTCTAACCTGTTGCGG (site TTGACACCTAG)”, the “recombinant barcode read abundance (log10)” value was found to be 0.189.

As for “GGAGTGACTTGGGTTCTAACCTGTTGCTA (site GGAGTGACTAA)”, the “recombinant barcode read abundance (log10)” value came to 0.183.

Turning to “GGAGTGACTTGGGTTCTAACCTGTTGCTA (site GGAGTGACTTA)”, the “recombinant barcode read abundance (log10)” value worked out at 1.61.

For the sequence “GGATAGCCTTGGGTTCTAACCTGTTGCTT (site GGATAGCCTAA)”, the “recombinant barcode read abundance (log10)” value was determined as 0.939.

On to “GGATAGCCTTGGGTTCTAACCTGTTGCTT (site GGATGGACTAA)”, for which the “recombinant barcode read abundance (log10)” value stood at 0.17.

“GGATATACTTGGGTTCTAACCTGTTGCCT (site GGATATACTAG)”: the “recombinant barcode read abundance (log10)” value is 1.47.

For “GGATATACTTGGGTTCTAACCTGTTGCCT (site GGATTTACTAG)”, the “recombinant barcode read abundance (log10)” value was found to be 0.186.

On to “GGATATCCTTGGGTTCTAACCTGTTGCTT (site CAGGTGACTCC)”, for which the “recombinant barcode read abundance (log10)” value was 0.

As for “GGATATCCTTGGGTTCTAACCTGTTGCTT (site GGATATCCTAA)”, the “recombinant barcode read abundance (log10)” value came to 0.284.

For “GGATCCTCTTGGGTTCTAACCTGTTGCCG (site GGATCCTCTCG)”, the “recombinant barcode read abundance (log10)” value worked out at 1.45.

Take “GGATCCTCTTGGGTTCTAACCTGTTGCCG (site GTTTCCTCTCG)”: the “recombinant barcode read abundance (log10)” value amounted to 0.0317.

As to “GGATGCACTTGGGTTCTAACCTGTTGCCA (site GGATACACTTG)”, the “recombinant barcode read abundance (log10)” value stood at 0.237.

Turning to “GGATGCACTTGGGTTCTAACCTGTTGCCA (site GGATCCACTTG)”, the “recombinant barcode read abundance (log10)” value is 0.00874.

Take “GGATGCACTTGGGTTCTAACCTGTTGCCA (site GGATGCACTTG)”: the “recombinant barcode read abundance (log10)” value stood at 0.953.

For the sequence “GGATGCACTTGGGTTCTAACCTGTTGCCA (site GGATTCACTTG)”, the “recombinant barcode read abundance (log10)” value worked out at 0.319.

In the case of “GGATGTCCTTGGGTTCTAACCTGTTGCGT (site CTATGTCCTAC)”, the “recombinant barcode read abundance (log10)” value is 0.29.

In the case of “GGATGTCCTTGGGTTCTAACCTGTTGCGT (site GGATGTCCTAC)”, the “recombinant barcode read abundance (log10)” value stood at 1.95.

On to “GGATTCACTTGGGTTCTAACCTGTTGCCA (site GGATACACTTG)”, for which the “recombinant barcode read abundance (log10)” value was determined as 0.0986.
